Results published in US20120178738A1, “DIBENZO [B,F] [1,4]OXAZAPINE COMPOUNDS” (ARYX THERAPEUTICS, INC., priority 2007, published 2012).
Like-named read-outs stand apart in the source and are kept apart here.

How the values were obtained:
human 5HT7 receptors = target: T1, human 5HT7 receptors (Homo sapiens, UniProt P34969); experiment: h5-HT7 receptor radioligand binding ([3H]5-CT)
T1 construct: expressed in transfected cells; host or cells: Chinese hamster ovary cells (membranes)
Description: (§1) Consistent with standard competition radioligand binding assays, the methodology was based on displacement of radioligand from tissues (or cell lines) bearing the receptor of interest (Cheng, Y. and Prusoff, W. H. (1973). Biochem. Pharmacol. 22, 3099-3108). The measurements were based on the binding of a single concentration of radiolabeled ligand in the presence of various concentrations of unlabeled ligand.
(§2) Tissues (or cellular plasma membrane fractions) were incubated in the presence of radioligand at equilibrium and in the presence of a range of concentrations of the test compounds (which were non-radiolabeled), and the displaced radioligand was separated from the membranes by filtration. Nonspecific binding was assessed by measuring displacement of the radioligand in the presence of a compound known to block binding of the radioligand to the receptor. Finally, the concentration-response relationship for radioligand displacement (corrected for non-specific binding) was used to assess binding of the test compound to the receptor.

5-HT2A receptor = target: T2, 5-HT2A receptor (Rattus norvegicus, UniProt P14842); experiment: cell-based
T2 construct: Eight strips of tissue (0.5 cm long) were cut. and were mounted in 10 ml organ baths; tissue Charles River Laboratories; host or cells: rat aorta strips, endothelium removed
Description: The rat aorta (approximately 7 cm) was isolated and removed from the animal (male Sprague Dawley rat, Charles River Laboratories, Hollister, Calif.). The endothelium was removed mechanically. Eight strips of tissue (0.5 cm long) were cut. and were mounted in 10 ml organ baths kept at 37° C. with Krebs solution (composition in mM: NaCl (118.2), KCl (4.6), CaCl2 (2.5), MgSO4 (1.2), KH2PO4 (1.2), NaHCO3 (24.8) and dextrose (10.0)) that was constantly aerated with carbogen gas (95% O2/5% CO2) to obtain a pH of 7.4. The tissues were subjected to a resting tension of 2 g (3 times, 15 minutes apart, equilibrated in Krebs solution). The tissues were then washed 15 minutes later. Ten minutes later, the tissues were then exposed to 0.1 μM phenylephrine. At the maximal effect, 1 μM acetylcholine was added to confirm the absence of endothelium and then washed twice, 2 minutes apart.
Contractions were recorded as changes in tension from baseline and expressed as a percentage of the maximum response of the agonist (5-HT) concentration-effect curve. Agonist concentration-response curves were fitted using a nonlinear iterative fitting program (GraphPad Prism) using the relationship of Parker and Waud (Parker, R. B. and Waud, D. R. (1971). Pharmacological estimation of drug-receptor dissociation constants. Statistical evaluation. I. Agonists. J. Pharmacol. Exp. Ther., 177, 1-12). Agonist potency was expressed as EC50 (molar concentration of agonist producing 50% of the maximum response). Concentration-ratios (CRs) were determined from EC50 values in the presence and absence of antagonist and antagonist affinity estimates (pKB and pA2 values) were determined. All data are expressed as mean±s.e. mean.

human 5HT2C receptors = target: T3, human 5HT2C receptors (Homo sapiens, UniProt P28335); experiment: h5-HT2C receptor radioligand binding ([3H]Mesulergine); settings: pKi reported on a scale of 1 through 5
T3 construct: expressed in transfected cells; host or cells: human embryo kidney cells (membranes)
T3 sequence (P28335 33-458): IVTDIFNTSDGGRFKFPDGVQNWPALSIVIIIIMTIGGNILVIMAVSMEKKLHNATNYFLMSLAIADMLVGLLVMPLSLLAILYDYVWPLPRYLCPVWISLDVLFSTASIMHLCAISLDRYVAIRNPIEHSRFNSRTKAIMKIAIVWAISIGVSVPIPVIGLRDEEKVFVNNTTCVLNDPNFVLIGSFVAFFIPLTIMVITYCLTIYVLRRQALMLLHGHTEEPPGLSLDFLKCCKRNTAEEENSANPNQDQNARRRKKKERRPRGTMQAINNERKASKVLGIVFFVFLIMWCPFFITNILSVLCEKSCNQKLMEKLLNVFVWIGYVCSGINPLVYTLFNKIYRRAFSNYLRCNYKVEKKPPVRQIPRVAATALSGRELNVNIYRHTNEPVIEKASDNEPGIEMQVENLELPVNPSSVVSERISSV
Description: The measurements were based on the binding of a single concentration of radiolabeled ligand in the presence of various concentrations of unlabeled ligand.
as §2

[1] = target: T4, human D2s dopamine receptors (Homo sapiens, UniProt P14416); experiment: hD2S receptor radioligand binding ([3H]spiperone); settings: pKi reported on a scale of 1 through 5
T4 construct: expressed in transfected cells; host or cells: Chinese hamster ovary cells (membranes)
Description: as §1, §2

[2] = target: T5, human D2L dopamine receptors (Homo sapiens, UniProt P14416); experiment: hD2L receptor radioligand binding ([3H]spiperone)
T5 construct: expressed in transfected cells; host or cells: insect Sf9 cells (membranes)
Description: as §1, §2

human M3 receptors = target: T6, human M3 receptors (Homo sapiens, UniProt P20309); experiment: hM3 receptor radioligand binding ([3H]NMS)
T6 construct: expressed in transfected cells; host or cells: Chinese hamster ovary cells (membranes)
Description: as §1, §2

human H1 receptors = target: T7, human H1 receptors (Homo sapiens, UniProt P35367); experiment: hH1 receptor radioligand binding ([3H]Pyrilamine); settings: pKi reported on a scale of 1 through 5
T7 construct: expressed in transfected cells; host or cells: Chinese hamster ovary cells (membranes)
Description: as §1, §2

human 5HT1A receptors = target: T8, human 5HT1A receptors (Homo sapiens, UniProt P08908); experiment: h5-HT1A receptor radioligand binding ([3H]8OH-DPAT); settings: pKi reported on a scale of 1 through 5
T8 construct: expressed in transfected cells; host or cells: Chinese hamster ovary cells (membranes)
T8 sequence (P08908 1-422): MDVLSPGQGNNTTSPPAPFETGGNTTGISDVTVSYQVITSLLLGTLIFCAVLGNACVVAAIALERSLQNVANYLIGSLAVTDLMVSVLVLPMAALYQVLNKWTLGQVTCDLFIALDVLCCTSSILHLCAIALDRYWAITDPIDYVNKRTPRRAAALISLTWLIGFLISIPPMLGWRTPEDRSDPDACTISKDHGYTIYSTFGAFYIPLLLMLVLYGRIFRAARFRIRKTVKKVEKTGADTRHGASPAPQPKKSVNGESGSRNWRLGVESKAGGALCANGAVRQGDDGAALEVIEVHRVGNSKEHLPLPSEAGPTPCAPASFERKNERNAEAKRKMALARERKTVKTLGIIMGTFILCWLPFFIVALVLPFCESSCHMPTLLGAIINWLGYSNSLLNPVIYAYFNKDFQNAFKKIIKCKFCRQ
Description: as §1, §2

human M1 receptors = target: T9, human M1 receptors (Homo sapiens, UniProt P11229); experiment: hM1 receptor radioligand binding ([3H]NMS); settings: pKi reported on a scale of 1 through 5
T9 construct: expressed in transfected cells; host or cells: Chinese hamster ovary cells (membranes)
T9 sequence (P11229 1-460): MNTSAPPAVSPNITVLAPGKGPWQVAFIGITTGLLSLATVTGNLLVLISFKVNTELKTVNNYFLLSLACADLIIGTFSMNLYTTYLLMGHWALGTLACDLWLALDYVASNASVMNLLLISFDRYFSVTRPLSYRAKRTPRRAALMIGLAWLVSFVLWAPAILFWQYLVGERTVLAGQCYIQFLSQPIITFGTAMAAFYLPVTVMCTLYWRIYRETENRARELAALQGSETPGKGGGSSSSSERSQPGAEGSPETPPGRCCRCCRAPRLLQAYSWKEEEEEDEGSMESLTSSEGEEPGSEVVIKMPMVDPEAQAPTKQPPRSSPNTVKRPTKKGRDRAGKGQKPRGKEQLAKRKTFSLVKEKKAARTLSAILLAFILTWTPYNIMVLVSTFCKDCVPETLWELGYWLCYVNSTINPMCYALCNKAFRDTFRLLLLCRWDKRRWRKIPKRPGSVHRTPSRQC
Description: as §1, §2

[3] = pKi reported on a scale of 1 through 5, read-out: 5HT7 (pKi) (converted)
[4] = read-out: 5HT2A (pKb) (converted)
[5] = pKi reported on a scale of 1 through 5, read-out: D2L (pKi) (converted)
[6] = pKi reported on a scale of 1 through 5, read-out: M3 (pKi) (converted)

T5 sequence (P14416 whole entry): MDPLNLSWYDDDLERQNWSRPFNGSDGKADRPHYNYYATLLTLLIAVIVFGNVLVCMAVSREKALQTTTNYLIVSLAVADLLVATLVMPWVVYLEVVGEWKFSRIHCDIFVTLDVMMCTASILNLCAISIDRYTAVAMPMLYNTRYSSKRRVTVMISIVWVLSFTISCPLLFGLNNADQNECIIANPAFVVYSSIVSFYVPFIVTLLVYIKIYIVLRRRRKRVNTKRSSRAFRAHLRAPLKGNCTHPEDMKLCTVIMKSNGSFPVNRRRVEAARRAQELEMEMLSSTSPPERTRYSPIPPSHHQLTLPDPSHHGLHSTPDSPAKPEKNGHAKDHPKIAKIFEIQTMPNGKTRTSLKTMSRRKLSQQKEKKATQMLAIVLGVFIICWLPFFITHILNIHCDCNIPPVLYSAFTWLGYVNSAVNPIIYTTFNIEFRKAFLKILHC
T1 sequence (P34969 whole entry): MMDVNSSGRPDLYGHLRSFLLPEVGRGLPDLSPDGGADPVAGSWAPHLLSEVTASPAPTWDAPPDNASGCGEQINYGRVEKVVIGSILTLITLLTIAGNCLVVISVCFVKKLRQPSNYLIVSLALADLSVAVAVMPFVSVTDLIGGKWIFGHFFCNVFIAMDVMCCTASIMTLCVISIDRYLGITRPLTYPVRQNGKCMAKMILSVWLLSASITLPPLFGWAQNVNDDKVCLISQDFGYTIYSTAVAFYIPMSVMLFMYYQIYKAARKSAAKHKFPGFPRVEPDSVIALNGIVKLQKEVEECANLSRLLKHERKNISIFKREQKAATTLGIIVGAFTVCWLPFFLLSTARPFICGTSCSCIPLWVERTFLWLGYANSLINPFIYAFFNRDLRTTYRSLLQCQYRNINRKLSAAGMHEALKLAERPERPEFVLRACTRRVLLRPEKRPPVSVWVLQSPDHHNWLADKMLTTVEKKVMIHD
T7 sequence (P35367 whole entry): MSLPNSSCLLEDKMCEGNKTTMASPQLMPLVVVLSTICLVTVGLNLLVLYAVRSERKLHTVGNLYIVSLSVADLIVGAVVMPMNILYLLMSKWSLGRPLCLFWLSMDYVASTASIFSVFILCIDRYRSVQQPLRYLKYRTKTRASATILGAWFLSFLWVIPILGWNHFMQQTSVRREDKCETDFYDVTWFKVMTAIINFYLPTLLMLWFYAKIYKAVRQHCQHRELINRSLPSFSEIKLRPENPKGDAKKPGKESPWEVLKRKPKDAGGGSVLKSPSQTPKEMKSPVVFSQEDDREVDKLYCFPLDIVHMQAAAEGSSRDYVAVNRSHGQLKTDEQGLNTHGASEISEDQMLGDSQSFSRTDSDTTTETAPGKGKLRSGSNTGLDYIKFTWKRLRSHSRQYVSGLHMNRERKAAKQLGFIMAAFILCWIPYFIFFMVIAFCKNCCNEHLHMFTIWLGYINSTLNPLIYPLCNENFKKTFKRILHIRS
T4 sequence (P14416 1-414 isoform P14416-2): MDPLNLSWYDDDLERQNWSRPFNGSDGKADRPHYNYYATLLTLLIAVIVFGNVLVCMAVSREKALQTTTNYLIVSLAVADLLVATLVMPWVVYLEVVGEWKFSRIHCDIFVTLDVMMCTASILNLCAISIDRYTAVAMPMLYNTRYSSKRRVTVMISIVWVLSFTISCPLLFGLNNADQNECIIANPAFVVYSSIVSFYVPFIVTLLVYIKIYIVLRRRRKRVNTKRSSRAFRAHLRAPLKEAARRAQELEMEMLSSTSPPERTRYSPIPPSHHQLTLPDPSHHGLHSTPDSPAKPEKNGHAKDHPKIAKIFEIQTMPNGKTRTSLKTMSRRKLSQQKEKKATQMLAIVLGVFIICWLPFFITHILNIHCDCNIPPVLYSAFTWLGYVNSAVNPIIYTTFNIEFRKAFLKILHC
T6 sequence (P20309 whole entry): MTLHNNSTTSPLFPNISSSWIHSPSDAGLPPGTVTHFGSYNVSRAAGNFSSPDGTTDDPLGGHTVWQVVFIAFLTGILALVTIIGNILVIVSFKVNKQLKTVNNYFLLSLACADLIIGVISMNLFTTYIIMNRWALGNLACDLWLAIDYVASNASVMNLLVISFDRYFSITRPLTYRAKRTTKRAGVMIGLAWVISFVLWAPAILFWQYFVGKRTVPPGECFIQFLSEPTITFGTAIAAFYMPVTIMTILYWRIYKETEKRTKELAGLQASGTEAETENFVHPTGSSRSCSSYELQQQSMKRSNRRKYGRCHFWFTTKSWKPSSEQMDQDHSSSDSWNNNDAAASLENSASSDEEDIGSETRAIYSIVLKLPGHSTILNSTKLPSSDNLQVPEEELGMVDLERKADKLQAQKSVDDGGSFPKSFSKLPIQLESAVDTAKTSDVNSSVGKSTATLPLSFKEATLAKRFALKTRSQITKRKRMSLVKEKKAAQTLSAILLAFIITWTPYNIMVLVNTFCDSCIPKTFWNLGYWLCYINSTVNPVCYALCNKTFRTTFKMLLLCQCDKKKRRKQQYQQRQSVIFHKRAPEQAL
T2 sequence (P14842 whole entry): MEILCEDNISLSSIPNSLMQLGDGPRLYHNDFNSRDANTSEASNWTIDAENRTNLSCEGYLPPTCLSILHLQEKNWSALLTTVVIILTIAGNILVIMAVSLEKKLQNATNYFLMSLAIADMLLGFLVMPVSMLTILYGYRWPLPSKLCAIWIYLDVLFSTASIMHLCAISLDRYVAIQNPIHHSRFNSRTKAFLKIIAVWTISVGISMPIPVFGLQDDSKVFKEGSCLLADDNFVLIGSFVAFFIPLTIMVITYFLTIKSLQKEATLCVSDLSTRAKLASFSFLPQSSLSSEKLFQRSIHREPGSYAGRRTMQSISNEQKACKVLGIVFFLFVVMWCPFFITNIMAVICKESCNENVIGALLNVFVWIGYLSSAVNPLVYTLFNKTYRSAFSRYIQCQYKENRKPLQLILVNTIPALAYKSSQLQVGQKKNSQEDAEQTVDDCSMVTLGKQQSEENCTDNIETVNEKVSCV

Structure (SMILES) | Ki (human 5HT7 receptors; [3]) [nM] | Kb (5-HT2A receptor; [4]) [nM] | Ki (human 5HT2C receptors) [nM] | Ki [1] [nM] | Ki [2, 5] [nM] | Ki (human M3 receptors; [6]) [nM] | Ki (human H1 receptors) [nM] | Ki (human 5HT1A receptors) [nM] | Ki (human M1 receptors) [nM] | Kb (5-HT2A receptor; pKb reported on a scale of 1 through 5, read-out: 5HT2A (pKb) (converted)) [nM] | Ki (human 5HT7 receptors) [nM] | Kb (5-HT2A receptor) [nM] | Ki [2] [nM] | Ki (human M3 receptors) [nM]
C[C@H](CC(C)(C)O)OC(=O)C[C@H]1CN(C2=Nc3cc(Cl)ccc3Oc3ccccc32)CCN1 [Compound ED, (R)-4-hydroxy-4-methylpentan-2-yl 2-((S)-4-((E)-8-chlorodibenzo[b,f][1,4]oxazepin-11-yl)piperazin-2-yl)acetate] | 631 to 1550 | 3.16 to 9.77 | < 9.77 | 631 to 2450 | 631 to 2450 | > 10000 | 10 to 97.7 | 10 to 97.7 | 5010 to 9770 |  |  |  |  | 
O=C(C[C@H]1CN(C2=Nc3cc(Cl)ccc3Oc3ccccc32)CCN1)NCCCO [Compound FS, (S,E)-2-(4-(8-chlorodibenzo[b,f][1,4]oxazepin-11-yl)piperazin-2-yl)-N-(3-hydroxypropyl)acetamide] | < 617 | 3.16 to 9.77 | 10 to 97.7 | 631 to 2450 | 631 to 2450 | > 10000 | ≤ 9.77 | 10 to 97.7 | > 10000 |  |  |  |  | 
COC(=O)C[C@H]1CN(C2=Nc3cc(Cl)ccc3Oc3ccccc32)CCN1 [Compound N, (S,E)-methyl 2-(4-(8-chlorodibenzo[b,f][1,4]oxazepin-11-yl)piperazin-2-yl)acetate] | 631 to 1550 | 3.16 to 9.77 | 10 to 97.7 | 631 to 2450 | 631 to 2450 | > 10000 | 100 to 977 | 100 to 977 | 5010 to 9770 |  |  |  |  | 
COC(=O)CC1CN(C2=Nc3cc(C(F)(F)F)ccc3Oc3ccccc32)CCN1 (centres unmarked) [DQ, (E)-methyl 2-(4-(8-(trifluoromethyl)dibenzo[b,f][1,4]oxazepin-11-yl)piperazin-2-yl)acetate] | 3980 to 9770 |  | 100 to 977 | 2510 to 9770 | 2510 to 9770 | > 10000 | 1000 to 9770 | 100 to 977 | > 10000 | > 100 |  |  |  | 
O=C(C[C@H]1CN(C2=Nc3cc(Cl)ccc3Oc3ccccc32)CCN1)O[C@H]1CN2CCC1CC2 [DT, (R)-quinuclidin-3-yl 2-((S)-4-((E)-8-chlorodibenzo[b,f][1,4]oxazepin-11-yl)piperazin-2-yl)acetate] |  |  | 100 to 977 | > 10000 |  |  | 1000 to 9770 | 100 to 977 | 5010 to 9770 |  | > 10000 | > 100 | > 10000 | > 10000
CC(C)(C)COC(=O)C[C@H]1CN(C2=Nc3cc(Cl)ccc3Oc3ccccc32)CCN1 [EA, (S,E)-neopentyl 2-(4-(8-chlorodibenzo[b,f][1,4]oxazepin-11-yl)piperazin-2-yl)acetate] | > 10000 | 10 to 30.9 | 10 to 97.7 | 2510 to 9770 |  | > 10000 | 100 to 977 | 10 to 97.7 | 1260 to 2450 |  |  |  |  | 
COC(C)(C)CCOC(=O)C[C@H]1CN(C2=Nc3cc(Cl)ccc3Oc3ccccc32)CCN1 [EB, (S,E)-3-methoxy-3-methylbutyl 2-(4-(8-chlorodibenzo[b,f][1,4]oxazepin-11-yl)piperazin-2-yl)acetate] | 1580 to 3890 | 10 to 30.9 | 10 to 97.7 | 631 to 2450 |  | > 10000 | 10 to 97.7 | ≤ 9.77 | 5010 to 9770 |  |  |  |  | 
CC(C)(O)CCOC(=O)C[C@H]1CN(C2=Nc3cc(Cl)ccc3Oc3ccccc32)CCN1 [EC, (S,E)-3-hydroxy-3-methylbutyl 2-(4-(8-chlorodibenzo[b,f][1,4]oxazepin-11-yl)piperazin-2-yl)acetate] | 631 to 1550 | 10 to 30.9 | 10 to 97.7 | 631 to 2450 |  | > 10000 | 10 to 97.7 | 10 to 97.7 | > 10000 |  |  |  |  | 
C[C@H](O)C[C@H](C)OC(=O)C[C@H]1CN(C2=Nc3cc(Cl)ccc3Oc3ccccc32)CCN1 [EO, (2S,4S)-4-hydroxypentan-2-yl 2-((S)-4-((E)-8-chlorodibenzo[b,f][1,4]oxazepin-11-yl)piperazin-2-yl)acetate] | 631 to 1550 | 10 to 30.9 | 10 to 97.7 | 631 to 2450 |  | > 10000 | 10 to 97.7 | ≤ 9.77 | > 10000 |  |  |  |  | 
